Test results from PubChem BioAssay (NCI).
Values joined by “and” are separate entries in the source; they are usually repeats but may differ in a detail not shown here. Equal values may be shown once.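 Cultured in 96-well plates, cells were exposed to test compound for 48 hours across five concentrations. Here, GI50 denotes the concentration required for 50% inhibition of growth. At the TGI there is no net growth.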

Legend:
Assay in all cases: growth of human tumour cells (NCI), 48 h
RXF 393 renal = test system: RXF 393 renal
OVCAR-8 ovarian = test system: OVCAR-8 ovarian
HCT-15 colon = test system: HCT-15 colon
T-47D breast = test system: T-47D breast
NCI-H522 lung = test system: NCI-H522 lung
SR leukemia = test system: SR leukemia
PC-3 prostate = test system: PC-3 prostate
K-562 leukemia = test system: K-562 leukemia
SF-539 CNS = test system: SF-539 CNS
CCRF-CEM leukemia = test system: CCRF-CEM leukemia

Structure (SMILES)	GI50 (RXF 393 renal)	TGI (RXF 393 renal)	GI50 (OVCAR-8 ovarian)	TGI (OVCAR-8 ovarian)	GI50 (HCT-15 colon)	TGI (HCT-15 colon)	GI50 (T-47D breast)	TGI (T-47D breast)	GI50 (NCI-H522 lung)	TGI (NCI-H522 lung)	GI50 (SR leukemia)	TGI (SR leukemia)	GI50 (PC-3 prostate)	TGI (PC-3 prostate)	GI50 (K-562 leukemia)	TGI (K-562 leukemia)	GI50 (SF-539 CNS)	TGI (SF-539 CNS)	GI50 (CCRF-CEM leukemia)	TGI (CCRF-CEM leukemia)
Cc1c(CN2CCC(Nc3ncnc4sc(CC(F)(F)F)cc34)CC2)ccc2c1cc(C#N)n2Cc1cn[nH]c1	1.94 µM and 2.74 µM	12.9 µM and 10.5 µM	5.07 µM and 6.1 µM	21.8 µM	2.62 µM and 3.24 µM	10.3 µM	0.897 µM and 1.06 µM	16.9 µM	3.77 µM and 5.24 µM	23.2 µM and > 27.5 µM	0.571 µM and 1.36 µM	3.68 µM and 5.19 µM	2.31 µM and 2.33 µM	18.9 µM and > 32.7 µM	0.883 µM and 1.14 µM	4.17 µM and 4.95 µM	7.37 µM and 15 µM	> 51.4 µM	2.98 µM and 2.97 µM	> 33.7 µM
CN1CCN(Cc2ccc(NC(=O)c3[nH]ncc3Nc3ncnc4c3CCC4)cc2)CC1	1.4 µM	3.23 µM	3.27 µM	13.5 µM	1.67 µM	12.6 µM	3.72 µM	22.7 µM	1.54 µM	8.79 µM	0.438 µM	3.05 µM	1.96 µM	12.1 µM	0.648 µM	12.1 µM	0.52 µM	2.61 µM	0.611 µM	11 µM
CCN(CC)CCCC(C)Nc1cnc(C(=O)Nc2cc(F)cc3cccnc23)cn1 (stereo unspecified)	4.26 µM and 1.32 µM	16.9 µM and 2.69 µM	7.03 µM and 1.29 µM	20.2 µM and 5.77 µM	3.45 µM and 0.751 µM	13.8 µM and 2.69 µM	0.759 µM and 0.505 µM	20.2 µM and 5.18 µM	5.51 µM and 1.26 µM	19 µM and 2.9 µM	2.66 µM and 1.6 µM	–	3.55 µM and 0.614 µM	15.3 µM and 2.24 µM	1.95 µM and 0.46 µM	4.97 µM and > 32.5 µM	10.3 µM and 1.52 µM	22.2 µM and 2.89 µM	2.55 µM and 0.478 µM	10.6 µM
CCOC(=O)C(Cc1c[nH]c2cc([N+](=O)[O-])ccc12)(NC(C)=O)C(=O)OCC	58.6 µM	133 µM	30.3 µM and 104 µM	> 1000 µM	> 1000 µM	> 1000 µM	40.7 µM and 105 µM	> 1000 µM	–	> 1000 µM	26.3 µM	446 µM	–	> 1000 µM	–	–	68.3 µM and 84.2 µM	330 µM	–	–
O=C1C(Cl)=C(N2CCOCC2)C(=O)c2ccccc21	1.85 µM	3.26 µM	1.6 µM	3 µM	2.11 µM	4.33 µM	2.31 µM	5.13 µM	1.67 µM	3.23 µM	2.77 µM	7.87 µM	9.38 µM	23.7 µM	2.15 µM	7.8 µM	20.1 µM	34.6 µM	2.53 µM	6.77 µM
CCc1ccc(CCC(=O)Nc2ncc(Cc3ccccc3)s2)o1	2.45 µM	9.13 µM	4.5 µM	> 100 µM	0.544 µM	> 100 µM	2.6 µM	> 100 µM	1.99 µM	> 100 µM	0.444 µM	> 100 µM	2.74 µM	> 100 µM	0.529 µM	> 100 µM	1.67 µM	4.46 µM	2.02 µM	> 100 µM
C=C1C(=O)O[C@@H]2C[C@@H](C)[C@@H]3[C@@H](OC4OC(COC(C)=O)C(O)C(O)C4O)CC(=O)[C@@]3(C)C[C@H]12 (stereo partly specified)	–	4.21 µM	–	3.7 µM	–	0.582 µM	–	8.89 µM	–	0.301 µM	–	7.53 µM	–	23.7 µM	–	3.78 µM	–	6.27 µM	–	16.1 µM
COC[C@H]1OC(=O)c2coc3c2[C@@]1(C)C1=C(C3=O)[C@@H]2CCC(=O)[C@@]2(C)C[C@H]1OC(C)=O	0.264 µM	3.07 µM	–	> 100 µM	–	> 100 µM	–	> 46.2 µM	–	> 71.9 µM	–	31.3 µM	–	> 100 µM	–	> 100 µM	–	31 µM	–	> 53.5 µM
O=C(Nc1ccc2oc(=O)c(C(=O)O)cc2c1)Oc1ccccc1	–	> 100 µM	–	> 100 µM	–	> 100 µM	–	> 100 µM	–	> 100 µM	–	> 100 µM	–	> 100 µM	–	> 100 µM	–	> 100 µM	–	–
O=C(CNC(=O)c1cccc2ccccc12)Nc1ccccc1Oc1ccccc1	–	–	0.315 µM	> 10 µM	0.245 µM	> 10 µM	0.542 µM	> 10 µM	0.151 µM	0.612 µM	0.0825 µM	> 10 µM	0.304 µM	> 10 µM	0.0704 µM	> 10 µM	0.237 µM	0.695 µM	0.345 µM	> 10 µM
O=C(Nc1ccc(Nc2ccncc2)cc1)c1ccc(Nc2ccnc3ccc([N+](=O)[O-])cc23)cc1	–	–	> 100 µM	> 100 µM	> 100 µM	> 100 µM	> 100 µM	> 100 µM	> 100 µM	> 100 µM	7.53 µM	> 100 µM	> 100 µM	> 100 µM	> 100 µM	> 100 µM	> 100 µM	> 100 µM	> 100 µM	> 100 µM
Cc1cc2c(C(N)=O)cccc2n1-c1nc2c(c(NCc3ccccc3)n1)CCCN2	0.126 µM	0.273 µM	0.182 µM	0.431 µM	0.162 µM	0.467 µM	0.185 µM	0.431 µM	0.164 µM	0.359 µM	0.117 µM	0.525 µM	0.287 µM	0.825 µM	0.0955 µM	2.92 µM	0.205 µM	0.423 µM	0.295 µM	19.8 µM
Cc1cc(-c2nc3ccc(O)cc3s2)ccc1N	30.5 µM	> 100 µM	> 100 µM	> 100 µM	> 100 µM	> 100 µM	22.6 µM	> 100 µM	30 µM	> 100 µM	22 µM	> 100 µM	50.2 µM	> 100 µM	36.4 µM	> 100 µM	–	–	0.797 µM	> 100 µM
NC1CCC[C@@H](O)[C@H]1O (stereo partly specified)	–	–	–	> 100 µM	–	> 100 µM	–	> 100 µM	–	> 100 µM	–	> 100 µM	–	> 100 µM	–	> 100 µM	–	> 100 µM	–	> 100 µM
